The values below come from patent US20240382399A1, “ANTISEBOGENIC COMPOSITION, FORMULATION AND USE OF THE COMPOSITION” (CHEMYUNION LTDA., priority 2021, published 2024).

Experiment [1] has as its system C. acnes. The following applies: concentrations of 6.9 mM (1 mg/mL) and 8.6 mM (1 mg/mL); cited from earlier work.
Experiment [2] has as its system 5-alpha reductase type 1. As to the kind of experiment: Expression of 5-alpha reductase type 1 in cultured human keratinocytes (real-time PCR). The settings on record: Testosterone 1.10^-8 mol/L, 24 hours; compared to the baseline control, P<0.05. The format is cell-based. On the procedure:
The objective of the test was to evaluate the effects of P19/7 on the expression of 5-alpha reductase type 1 in cultured human keratinocytes. The enzyme 5-alpha-reductase […] acts in the conversion of testosterone into dihydrotestosterone (DHT), a steroid responsible for modulating sebaceous secretion.
To carry out the assay, commercially obtained human keratinocytes (Rio de Janeiro Cell Bank—BCRJ) were cultivated in specific culture media and maintained in a humid incubator at 37° C. containing 5% CO2. When they reached confluence (3rd to 5th passage), cells were seeded in a 6-well plate and incubated with 0.0049% (w/v) P19/7+Testosterone (1.10^−8 mol/L) or Testosterone (1.10^−8 mol/L) for a period of 24 hours. After 24 hours of incubation, RNA was extracted using the PureLink RNA Mini Kit (Thermo Fisher) and quantified using the NanoDrop Lite spectrophotometer (Thermo Scientific). Tests were performed on a StepOnePlus device (Applied Byosystems). To perform real-time PCR, a commercially available analysis system was used (TaqMan® Gene Expression Assays; SRD5A1: (HS00971643_G1, 5-alpha reductase type 1); B2M: Hs00984230_m1; Applied Biosystems), with primers and probes based on sequence consensus using the TaqMan® RNA-to-CT™ 1-step kit (Applied Byosystems). […] Gene expression of 5-alpha reductase was calculated according to Pfaffl (2001).
In general terms: In qPCR the cycle at which signal appears reflects the starting amount.

Take `CCCCCCCC(=O)O` [caprylic acid]: in experiment [1], the “inhibitory effect on the growth of C. acnes” value is “no apparent inhibitory effect”.

For `C[C@]12CC[C@H]3[C@@H](CCC4=CC(=O)CC[C@@]43C)[C@@H]1CC[C@@H]2O` [testosterone, Testosterone], the “increase of relative expression of type 1 5-alpha-reductase” value in experiment [2] stood at 13%.
